Assay results from BindingDB's records for PubMed 34479036 (n/a, 2021).

Target: T1, Prostaglandin G/H synthase 2 (Homo sapiens, UniProt P35354)
T1 sequence (P35354 whole entry): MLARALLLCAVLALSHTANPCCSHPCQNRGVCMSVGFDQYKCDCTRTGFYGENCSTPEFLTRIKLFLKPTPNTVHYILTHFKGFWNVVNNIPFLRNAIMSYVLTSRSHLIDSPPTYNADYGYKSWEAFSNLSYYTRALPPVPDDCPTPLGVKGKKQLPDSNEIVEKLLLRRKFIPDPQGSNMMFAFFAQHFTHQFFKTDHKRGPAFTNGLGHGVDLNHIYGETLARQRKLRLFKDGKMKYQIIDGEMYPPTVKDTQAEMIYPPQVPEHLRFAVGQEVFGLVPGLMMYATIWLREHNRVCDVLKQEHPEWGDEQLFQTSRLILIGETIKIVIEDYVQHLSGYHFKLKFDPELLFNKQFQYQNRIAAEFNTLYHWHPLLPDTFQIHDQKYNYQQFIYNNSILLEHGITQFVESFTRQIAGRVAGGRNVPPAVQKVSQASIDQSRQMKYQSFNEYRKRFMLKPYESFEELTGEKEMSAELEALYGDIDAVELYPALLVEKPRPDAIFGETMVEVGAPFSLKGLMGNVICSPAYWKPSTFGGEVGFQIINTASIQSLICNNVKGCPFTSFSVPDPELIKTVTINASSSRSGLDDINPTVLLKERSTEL
Test: Inhibition of COX-2 (unknown origin) by enzyme immune assay

C=C1CC[C@@H]2[C@H](CC2(C)C)C(=C)CC[C@H]1O
IC50: 0.088 µM
